Numbered stars: 1 amine (or outer) side, 2 acyl side, 3 side chain; on linkers, the order of the positions; unused ones are H or OH. Peptide text beside a SMILES is read from it. * marks the point of attachment. X1 = Brc1ccc2c(c1)-c1cc(N*)ccc1C2; Suc = O=C(CCC(=O)[*:2])[*:1]
Key:
[1] = system: Myzus persicae; test: Feeding of aphids with peptides in artificial diet; life span and fecundity; format: in vivo; details: M. persicae on artificial diet containing the peptide; mean ± SE
Description: A standard artificial diet for M. persicae was produced as described in Van Emden (2009) and provided the basal diet to which neuropeptide analogues were added for screening purposes. Neuropeptide analogues were diluted individually in the artificial diet to a pre-determined recommended concentration as follows: 1895 (3.5×10^-5 M) and 2019 (2.0×10^-5 M). Feeding apparatus were constructed using a set-up developed by […] et al (2009). For this, a piece of Parafilm was stretched over a Plexiglas ring (h=4 cm, Ø=3 cm) and 100 μl of the artificial diet containing the desired neuropeptide analogue was pipette onto the Parafilm membrane. A second piece of Parafilm, stretched to 4 times the original thickness, was stretched over the original layer, sandwiching the artificial diet between two layers of Parafilm. A strip of Parafilm was wrapped around the circumference of the Plexiglas ring, sealing in the diet. A plastic ring (h=1.2 cm, Ø=3.4 cm) was subsequently placed over the Parafilm layer, creating a walled chamber in which to house test aphids in contact with the Parafilm layer containing the artificial diet. Finally, a small Petri dish (h=1 cm, Ø=3.6 cm), modified for ventilation with net cloth, was placed on top of each feeding apparatus to prevent aphid escape. To obtain aphids for use in experiments, reproducing anholocyclic adults were placed on individual excised leaves of Chinese cabbage at densities of 5 adults per leaf and allowed to reproduce for 24 h. The stem of each excised leaf was held within a 0.5 mL Eppendorf tube containing water via a punctured hole in the Eppendorf lid, and placed individually within a microcage (L=4 cm, Ø=9.5 cm). Following 24 h, adults were removed and resultant first instar nymphs (<1 day old and synchronised in age to within 24 h) retained. Nymphs were allowed to develop on the Chinese cabbage for 5 days. On day 5, (3rd instar) nymphs were transferred onto the artificial diet containing a neuropeptide analogue at densities of 1 per feeding chamber and monitored daily until death. Aphids were transferred to fresh artificial diet (containing neuropeptide analogue) every 5 days. Life history traits recorded include age at first reproduction, number of nymphs produced per 24 h period, and lifespan. From these parameters, lifetime fecundity and daily fecundity were calculated. Control groups were set up involving aphids reared on the host plant, an artificial diet without a neuropeptide analogue, and an artificial diet containing the native CAPA neuropeptide.

[2] = system: Myzus persicae; test: Topical application by spraying, Potter Spray Tower; format: in vivo; details: 3000 μl, 1×10^−5M of each peptide in ATPlus 0.1%, counted 48 hours post spray
Description: Aphids were exposed to test peptides in the absence of additional external stress conditions.
Brassica rapa (Chinese cabbage; Wong Bok) were infested with 30 adult Myzus persicae aphids per plant. Aphids were left at least 2 hours to settle and begin feeding from the host plant.
Spraying took place inside a designated spray room. To ensure spray tracking, all sprayed solutions had amaranth dye added.
Potter Spray Tower (Burkard Manufacturing) was ‘primed’ by spraying 1000 μl of liquid coating the inside of the tower. Two controls were used:
i) vehicle spray only (Croda ATPlus UEP 100 LQ-(CQ) 0.1% v/v); and ii) Imidacloprid positive control (28.3 μM).
Imidacloprid was always applied last and via a second, separate, Potter Tower, to prevent any possibility of stray pesticide being left inside the tower and contaminating a test peptide-applied plant.
Spray volumes for all solutions were 3000 μl. The 6.9 mm spray head was loaded with 3000 μl of a 1×10^−5M peptide solution diluted in ATPlus 0.1%. After spraying was completed the plant was allowed to rest on the spray platform for 30 seconds to allow settling of the sprayed chemical.
For this experiment there were three test conditions: 1895 alone (1×10^−5M); 2129 alone (1×10^−5M); and a simultaneous co-application of 1895+2129 together (1×10^−5M of each peptide).
Post peptide application, each condition was placed into its own individual Bugdorm (Watkins and Doncaster, 44545), to prevent repulsed or displaced aphids moving from one condition to another. Numbers of alive and dead aphids on the plant were counted 48 hours post spray, and the presence of any fresh nymphs noted. Plants were watered prior to spraying but not afterwards to eliminate the possibility of drowning any aphids present or washing off the sprayed liquid.
Post spraying, the spray head was filled with over 3000 μl of 70% ethanol and sprayed until empty. The spray head was carefully removed and rinsed with 70% ethanol as some amaranth dye was observed on the spray head. […]

Compound | Age at 1st reproduction [1] | Ave. daily fecundity [1] | Days as reproducing adult [1] | Life span [1] | Lifetime fecundity [1] | % Lethality [2]
CC[C@H](C)[C@H](NC(=O)[C@H](CCCNC(=N)N)NC(=O)[C@@H]1CCCN1C(=O)[C@@H](NC(=O)[C@H](C)NC(=O)CCC(=O)Nc1ccc2c(c1)-c1cc(Br)ccc1C2)[C@@H](C)O)C(N)=O [compound 2129, 2Abf-Suc-ATPRI-NH2] ({X1-Suc}-ATPRI-NH2) | 12.4 ± 0.7 days | 1.2±0.1 nymphs | 7.17 ± 1.5 | 21.0 ± 2.3 days | 8.8 ± 2.0 nymphs | 32%
2Abf-Suc-FGPRL-NH2 [compound 1895] | 11.5 ± 0.5 days | 1.1±0.1 nymphs | 5.8 ± 1.8 | 19.8 ± 2.5 days | 6.4±2.0 nymphs | 34%

— patent publication US20220039395A1, “INSECT CONTROL AGENTS” (priority 2018, published 2022)
